Data from patent publication US20230381202A1, “COMPOSITIONS AND METHODS FOR TREATING CARDIOVASCULAR RELATED DISORDERS” (The Regents of the University of Michigan, priority 2020, published 2023).

Columns and labels:
C57BL/6J mice [1] = assay: Mouse tail bleeding assay; type: in vivo; details: 24 hours post IV; ML355 1.5 mg/kg, sHDL 50 mg/kg
Procedure: Male and female C57BL/6J mice (n=6) were intravenously dosed with the following treatments: 1) vehicle control (equivalent volume); 2) ML355 (1.5 mg/kg); 3) sHDL (50 mg/kg); or 4) ML355-sHDL (sHDL at 50 mg/kg and ML355 at 1.5 mg/kg). The tail bleeding assay was performed post 24 hour of treatment as previously described (44, 56). Briefly, mice were anesthetized as described above and placed on a heating pad. Five millimeters of tail tip was excised, and the tails were immediately immersed in 14 mL of sterile saline at 37° C. Bleeding time was recorded as the cessation of blood flow from the tail for at least […] using a stopwatch. The amount of blood loss from tail tip was quantified by measuring hemoglobin using Drabkin's reagent (Sigma). Briefly, blood samples were pelleted at 500 g for 10 minutes at room temperature, and the pellet was resuspended in 5 mL Drabkin's Reagent and incubated at room temperature for 15 minutes. Amount of hemoglobin lost was quantified by comparing the absorbance of the samples at 540 nm using SpectraMax i3 microplate reader (Molecular Devices LLC., San Jose, CA) to a standard curve of bovine hemoglobin in Drabkin's reagent.

C57BL/6J mice [2] = assay: FeCl3-induced carotid artery thrombosis model; type: in vivo, mouse; details: IV 24 hours before 10% FeCl3 injury
Procedure: Male and female C57BL/6J mice (n=6) were intravenously injected with vehicle control (equivalent volume of saline), ML355 (1.5 mg/kg), sHDL (50 mg/kg) or ML355-sHDL (sHDL at 50 mg/kg and ML355 at 1.5 mg/kg), respectively. 24 hours post-administration, mice were anesthetized as described above and tail veins were injected with a DyLight 488 anti-GPIb (1 μg/g; Emfret, Elbelstadt, Germany) to label circulating resting platelets in mice prior to intravital microscopy imaging. The mice were placed on a heating pad and the right common carotid artery was prepared under the dissecting microscope. Then, the mice were placed on the microscopic stage and blood flow in the carotid artery was visualized under 10× air objective using a Zeiss Axio Examiner Z1 upright fluorescent microscopy. Carotid artery injury was induced by topically placing a 10% FeCl3 saturated Whatman paper for 3 minutes under recording. Images of platelet adhesion and the dynamics of thrombus formation were recorded for 30 minutes using a high-speed sCMOS camera using Slidebook 6.0.

platelets = assay: Phosphatidylserine exposure on platelets; type: in vivo, mouse; details: 1, 6 and 24 hours post IV; compared to resting platelets
Procedure: Male and female C57BL/6J mice (n=6) were intravenously dosed with the following treatments: 1) Saline control (equivalent volume); 2) ML355 (1.5 mg/kg); 3) sHDL (50 mg/kg); or 4) ML355-sHDL (sHDL at 50 mg/kg and ML355 at 1.5 mg/kg). At different time points post administration (1, 6 and 24 hours), the phosphatidylserine-exposure over time course in platelets from different groups were quantified by flow cytometry. Briefly, whole blood was collected from the saphenous vein and incubated with PE anti-mouse CD41 Antibody (BioLegend #133906) for platelet labeling and Annexin V, Alexa Fluor™ 647 conjugate (phosphatidylserine-exposure) (Thermo Fisher Scientific). The mean fluorescent intensity of Annexin in platelets was quantified by flow cytometry. In addition, blood collected from mice prior to treatment was taken as resting platelets (negative control) and blood stimulated with PAR4-AP (200 μM) was used as activated platelets (positive control).

whole blood = assay: Coagulation tests by thromboelastography; type: in vivo, mouse; details: 24 hours post IV; ML355 1.5 mg/kg, sHDL 50 mg/kg
Procedure: Male and female C57BL/6J mice (n=6) were intravenously injected with vehicle control (equivalent volume of saline), ML355 (1.5 mg/kg), sHDL (50 mg/kg) or ML355-sHDL (sHDL at 50 mg/kg and ML355 at 1.5 mg/kg), respectively. 24 hours after administration, mice were anesthetized by intraperitoneal injection of ketamine/xylazine mixture as described above. Whole blood was collected via vena cava using a 25 G syringe containing sodium citrate 3.8% (blood to citrate volume ratio is […]). 340 μL citrated blood was mixed with 20 μL CaCl2 (0.2 mol/L), and viscoelastic properties of whole blood clot formation was studied under low shear stress using a Heamoscope TEG 5000 Thrombelastograph Hemostasis Analyzer (Haemonetics Corp., Braintree, Massachusetts, USA) according to the manufacturer's instructions. Major coagulation parameters including R time (time to formation of the initial fibrin threads), Alpha angle (the rapidity with which the clot forms), K time (the time until the clot reaches a certain strength) and maximum amplitude (clot's maximum strength) were analyzed and compared among different groups.

washed mouse platelets = assay: Ex vivo washed mice platelet activation inhibition test (thrombin-induced aggregation); type: in vivo; details: for platelet aggregation: 24 hours after IV ML355 1.5 mg/kg, sHDL 50 mg/kg
Procedure: Male and female C57BL/6J mice were divided into four groups (n=4) and intravenously dosed with the following formulations: 1) control vehicle (equivalent volume); 2) ML355 (1.5 mg/kg); 3) sHDL (50 mg/kg); or 4) ML355-sHDL (sHDL at 50 mg/kg and ML355 at 1.5 mg/kg). 24 hours after administration, mice were sacrificed under terminal anesthesia. […] Mouse platelet preparation was performed as previously described (44, 45). Murine platelets were resuspended at 3×10^8 platelets/mL in Tyrode's buffer. Mouse platelet aggregation was induced by various doses of thrombin (0.1-0.5 nM) and measured with a lumi-aggregometer using the same method described above.

C57BL/6J mice [3] = assay: Laser-induced cremaster arteriole thrombosis model; type: in vivo, mouse; details: IV 24 hours before injury; ML355 1.5 mg/kg, sHDL 50 mg/kg
Procedure: Male C57BL/6J mice (n=3) were intravenously dosed with the following treatments: 1) saline control (equivalent volume); 2) ML355 (1.5 mg/kg); 3) sHDL (50 mg/kg); or 4) ML355-sHDL (sHDL at 50 mg/kg and ML355 at 1.5 mg/kg). 24 hours post-administration, mice were anesthetized and surgically prepared as above described. DyLight 647-conjugated rat anti-mouse platelet GP11:43 antibody (0.1 μg/g; X649; EMFRET Analytics) was administered by jugular vein cannula prior to vascular injury. Multiple independent thrombi (8-10) were induced in the arterioles (30-50 μm diameter) in each mouse (3 mice per group) by a laser ablation system. All captured images were analyzed for change in fluorescent intensity over time of thrombus formation by subtracting fluorescent background defined on an uninjured section of the vessel using the Slidebook program. To monitor and compare dynamic thrombus formation among different treatment groups, the relative fluorescent intensity of Alexa Flour 647-labled platelets (recruited within thrombus) was plotted using the mean fluorescence at each time point. Data were evaluated for significance with two-way ANOVA and Mann-Whitney test for nonparametric data using Prism 6 software (Graphpad, La Jolla, CA, USA).

[4] = pH 7.4 PBS; cited from earlier work
washed human platelets = assay: In vitro washed human platelet aggregation test (thrombin-induced); type: cell-based; details: ML355 10 μM, sHDL 100 μg/mL, 15 minutes
Procedure: Human platelets were prepared and aggregation was assayed as described previously (44, 45, 56). Platelets were incubated with DMSO (equivalent volume to dissolve ML355) and treated with control, ML355 (10 μM), sHDL (100 μg/mL), or ML355-sHDL (sHDL at 100 μg/mL and ML355 at 10 μM) for 15 minutes. In addition, untreated platelets were included as control. Platelet aggregation was induced by various doses of thrombin (0.1-1 nM) as reported in previous studies (44). Aggregation was measured in response to thrombin with a lumi-aggregometer (Model 700D; Chrono-Log) under stirring conditions at 1100 rpm at 37° C.

blood loss evaluated by measuring hemoglobin (C57BL/6J mice [1]): no effect | tail bleeding time (C57BL/6J mice [1]): did not prolong | platelet phosphatidylserine exposure (platelets): did not increase | coagulation (TEG parameters R time, K time, alpha angle, MA) (whole blood): did not compromise the coagulation
Structure (SMILES): COc1cccc(CNc2ccc(S(=O)(=O)Nc3nc4ccccc4s3)cc2)c1O [ML355, N-2-benzothiazolyl-4-[[(2-hydroxy-3-methoxyphenyl)methyl]amino]-benzenesulfonamide]
thrombus growth (and vessel occlusion) (C57BL/6J mice [2]): delayed and unstable | mean vessel occlusion time (C57BL/6J mice [2]; ML355 1.5 mg/kg, sHDL 50 mg/kg): 11.0 ± 2.3 min | platelet aggregation (washed mouse platelets; 0.1 nM thrombin): 20.3±3.5% | platelet aggregation (washed mouse platelets; 0.25 nM thrombin): 32.6±6.6% | inhibitory effects on platelet aggregation (washed mouse platelets; 0.5 nM thrombin, 24 hours after IV dosing): overcome | inhibition of thrombus formation (platelet accumulation in thrombi) (C57BL/6J mice [3]): varying levels of inhibition | estimated solubility [4]: < 5 µg/mL | platelet aggregation (washed human platelets; 0.1 nM thrombin): 5.6±2.5% | platelet aggregation (washed human platelets; 0.25 nM thrombin): 40.4±6.8% | platelet aggregation (washed human platelets; 0.5 nM thrombin): 76.4±4.7%
